# Results as given in US11918550B2, “Sensitization of cancer cells to differentiation therapy with mitochondrial uncoupler niclosamide ethanolamine” (The Board of Trustees of the Leland Stanford Junior …, priority 2020, dated 2024).
# What was measured:
# Format in all cases: cell-based
# SK-N-BE(2) cells [1] = assay: Infinium Methylation EPIC array, locus-specific DNA methylation
# Procedure: DNA microarray analysis. DNA extraction was carried out with samples were extracted by using PureLink™ Genomic DNA Mini Kit (Gibco, K182001), according to the protocol provided by the supplier. The DNA was quantified with the Nanodrop and 3 ug was used for bisulfite modification using the EZ DNA methylation kit (D5001, Zymo Research, Orange, CA) according to the protocol provided with the modification step according to the recommendations for array processing of the samples. Control PCR reactions were carried out before array analysis to confirm successful modification of the DNA. The bisulfite-modified DNA (500 ng) was applied to the Infinium MethylationEPIC array (Illumina). After bisulfite treatment of the DNA samples, the cytosines in the CpG sites were genotyped as C/T polymorphisms according to the manufacturer's protocol. Raw array data was collected with 866 k probes for 8 samples across 4 stages (those are control, 5 hours, 24 hours and 48 hours). The fluorescence signals were measured from the BeadArrays using an Illumina BeadStation GX scanner.
# The fluorescence data were then analyzed using the GenomeStudio software (Illumina). The software assigns a score called a “b value” to each CpG site, which corresponds to the ratio between the fluorescence signal of the methylated allele (C) and the sum of the fluorescent signals of the methylated (C) and unmethylated (T) alleles. The data generated by the BeadStudio software was exported and further analyses were performed in the R programming environment. Then a detection p-value for every probe in every sample, representing the quality of the signal is generated using method minfi. Poor probes with all samples' p-values larger than or equal to 0.01 are removed which results in 864 k probes left. For methylation levels estimations we use M-Values (log 2 based Methylation signal over unmethylation signal) for analysis.
# Differential Methylation Probes are identified by first standardizing M-Values with both rows and columns and then enforced certain direction (hypermethylated or hypomethylated) between control versus treatments. The p-values used in the volcano plot is calculated through Fisher' method by combining quality p-value for all samples with each probe.
# NB16 cells [2] = assay: Neurite outgrowth and β-tubulin III immunofluorescence (neuron differentiation); settings: 72-96 h
# Procedure: Neurite outgrowth assay. The quantification of neurite was performed as described before. Shortly, 1×10^4 SK-N-BE(2) and NB16 cells were plated in a 12 well-plate per well. After overnight incubation, cells were treated with various conditions as indicated for 72 h. Then, images were taken by a Leica Florescent Microscope DMi8 in phase contrast mode (20× magnification). The lengths of the neurites were traced and quantified using the ImageJ plugin NeuronJ. For each sample, total neurite length was measured and normalized to the number of cell bodies, mean value from 3 biological replicates was reported. Immunofluorescence staining. SK-N-BE(2) and NB16 cells were seeded into 8-chamber slides (Thermo Fisher Scientific, 154534) with a density of 6×10^3 cells/well overnight and treated with indicated treatment for 72 h. Cells were fixed with 4% PFA in PBS with 0.1% Tween-20 at RT for 30 minutes followed by permeabilization with 0.1% Triton X-100 in PBS at room temperature for 10 min. The cells were washed with PBS twice and blocked with 2.5% horse serum in PBS at RT for 1 h. Then, cells were subjected to immunofluorescence staining with primary antibody at 4° C. overnight. After two washes with PBS, cells were incubated with Alexa Fluor 594-conjugated anti-rabbit secondary antibody (Life Technologies) at RT for 1 h followed by staining with DAPI (Vector Laboratories, H-1800-2). Images were acquired with Leica DMi8 microscope.
# NB16 cells [3] = assay: Western blot of β-catenin and p53; settings: NB16, 1 μM NEN 24 and 48 hrs
# Procedure: (§1) Protein extraction and immunoblot. Cells were washed with ice-cold PBS buffer (Invitrogen, 20012050) and lysed with harvest buffer (10 mM Hepes pH 7.9, 50 mM NaCl, 500 mM sucrose, 0.1 mM EDTA and 0.5% Trition X-100) supplemented with 1% Halt inhibitors (Thermo Scientific™, 78443) for 10 minutes. Cell lysate was centrifuged at 3000 rpm for 3 min at 4° C. The supernatant containing cytosolic proteins was transferred to a different tube. The pellet containing nuclear proteins was dissolved with nuclear lysis buffer (10 mM Hepes pH 7.9, 0.5M NaCl, 0.1 mM EDTA, 0.1 mM EGTA and 0.1% NP40) supplemented with 1% Halt inhibitors (Thermo Scientific™, 78443) for 5 minutes at 4° C. Then the solution was sonicated at 4° C. for 6 cycles (1 cycle=30 s sonication and 30 s cooldown with “High” energy intensity) using a Bioruptor® Plus sonication (Diagenode, UCD-300). After sonication, the solution was centrifuged at 15,000 rpm for 10 minutes. The supernatant was kept as nuclear extraction. Protein concentration was determined by BCA assay (Thermo Scientific, 23227). 5 μg nuclear proteins or 7.5 μg cytosolic proteins were boiled in loading buffer with reducing reagents (Invitrogen, NuPAGE™ LDS Sample Buffer (4X), NP0007), then separated with SDS-PAGE (Nupage™ 4-12% Bis-Tris Protein Gels, 1.0 mm, Invitrogen™, NP0322BOX). Protein was transferred onto a nitrocellulose membrane (Thermo Scientific™, 88018). After blocking in 5% non-fat milk for 30 minutes at room temperature (RT), the primary antibody was added for incubation overnight at 4° C. After washing with TBST (CST, #9997, 1:10 diluted by deionized water) for 3 times, HRP-conjugated secondary antibodies were applied. Signals were detected with an ECL kit (Thermo Scientific™, 34577) by using BioRad Universal Hood II.
# SK-N-BE(2) cells [4] = assay: Western blot of β-catenin and p53; settings: 1 μM NEN 24 and 48 hrs
# Procedure: as §1
# SK-N-BE(2) cells [5] = assay: Western blot of RA signaling proteins; settings: 24 hrs
# Procedure: as §1
smiles,measurement,setting,value
"O=C(Nc1ccc([N+](=O)[O-])cc1Cl)c1cc(Cl)ccc1O [NEN, 5-chloro-N-(2-chloro-4-nitrophenyl)-2-hydroxybenzamide compound with 2-aminoethanol (1:1)]","differentially methylated sites close to transcription start sites (TSS200, 1st exon)",SK-N-BE(2) cells [1]; 1 μM NEN 24 or 48 hours,more hypomethylated sites than hypermethylated sites
same,differentially methylated sites in 'shelf' and 'shore' regions (vs CpG islands),SK-N-BE(2) cells [1]; 1 μM NEN 24 or 48 hours,opposite trend
same,differentially methylated sites in CpG islands,SK-N-BE(2) cells [1]; 1 μM NEN 24 or 48 hours,more hypo-methylated sites than hyper-methylated sites
same,differentially methylated sites in the gene body and 3′ UTR region,SK-N-BE(2) cells [1]; 1 μM NEN 24 or 48 hours,more hypermethylated sites than hypomethylated sites
same,DNA methylation levels of CpG sites in the promoter region of p53 and CTNNBIP1,SK-N-BE(2) cells [1]; 1 μM NEN 24 h,upregulated/downregulated
same,"neuron differentiation morphology, NEN combined with RA vs NEN alone","NB16 cells [2]; NB16, 1 μM NEN + 1 μM 13-cis-RA",more profound
same,"neuron differentiation morphology (neurite length, β-tubulin III staining)","NB16 cells [2]; NB16, 1 μM NEN alone",induced
same,expression of p53,NB16 cells [3],increased
same,expression of β-catenin (nuclear protein),NB16 cells [3],reduced
same,expression of p53,SK-N-BE(2) cells [4],increased
same,expression of β-catenin (nuclear protein),SK-N-BE(2) cells [4],reduced
same,protein level of RARγ,SK-N-BE(2) cells [5]; 1 μM NEN alone,increased
same,protein level of RARγ,SK-N-BE(2) cells [5]; 1 μM NEN combined with 1 μM RA,further upregulated
